The values that follow come from patent publication US4888355A, “Indanes and their use as antiarrhythmic agents” (priority 1986, dated 1989).

One data set in a line: Diuretic activity. Type of data set: in vivo. The following applies: male Sprague-Dawley rats; 1 mg/kg; period t1h-t2h. As to the method: Male rats of the Sprague-Dawley strain weighing 180 to 200 g were fasted for 17 hours before the test but received as much water as they desired. Groups of 8 rats were used for the test doses with the rats receiving the test compound or only the vehicle. The remaining volume was measured hourly for 2 hours after administration of the compound. At the end of this period, the urine was collected and the activity of the compounds was expressed as the percentage of variation calculated as the urinary volume in the period t1h -t2h.

The nature of data set [1]: Antiarythmic activity, aconitine perfusion in anesthesized rats. Type of data set: in vivo. The following applies: male rats; 10 mg/kg intravenous, 5 minutes before aconitine perfusion 10 μg/mn; vs controls. How it is done: Tracheotomized male rats weighing 300 to 350 g were anesthesized intraperitonally with 1.20 g/kg of urethane and were subjected to artifical respiration of 40 to 50 insufflations of 3 ml/minute. Needles were implanted subcutaneously to register the electrocardiogram of the rats by the signal of DII derivative. The test compounds were administered intraveinously and 5 minutes later, the jugular veins of the rats were perfused with 10 μg/mn or 0.2 ml of an aconitine solution and the time of appearance of troubles in the cardiac rhythm was noted. The results were expressed as a percentage of the elongation of time of the appearance of the cardiac rhythm troubles as compared to the controls and as a function of the dose of the test compound.

Data set [2] is described as follows: In vivo analgesic activity, hot plate test. The following applies: Mus musculus, sc, 0.5 h; female mice, copper plate 56° C.; subcutaneous; 30 minutes after treatment; read-out: DA100 (dose which increased the reaction time 100%). As to the method:
In the hot plate test, female mice weighing 22 to 24 g were placed individually on a copper plate maintained at 56° C. and the reaction to the pain was manifested by licking of the paws by the animal. […] The mice were divided into homogenous group and the test compound was administered subcutaneously with one group receiving only the vehicle. The reaction time to pain was measured again 30 to 60 minutes after treatment and the dose which increased the reaction time 100% (DA100) 30 minutes after treatment as compared to the control animals was determined. The DA100 for the compound of Example 1 was 8 mg/kg.
On the technique in general: Thermal pain tests record how soon the animal reacts.

The next data set can be described thus: Acute toxicity. The data set is classed as in vivo. As to conditions: mice. As to the method:
The LDO or the dose at which there was no mortality after 8 days was determined on mice and the DLO for the compounds of Example 1,3 and 4 was 100, 100 and 200 mg/kg, respectively.

The target in the next data set is T1, Kappa opiate receptor (Cavia porcellus, UniProt P41144).
T1 construct: Membrane culots preserved at -30° C. for about 30 days and prepared from guinea pig cerebellum; from tissue; host or cells: guinea pig cerebellum membranes
Nature of the data set: In vitro bonding of Kappa opiate receptor. Type of data set: binding. The following applies: guinea pig cerebellum membranes; 1 nM 3H ethylketocyclazocine; pH 7.7; 25° C., 40 minutes; read-out: CI50 (50% inhibiting concentration). As to the method:
Membrane culots preserved at -30° C. for about 30 days and prepared from guinea pig cerebellum were suspended in buffered Tris pH of 7.7. 2 ml fractions were placed in hemolysis tubes and 1 nM of 9^3 H ethylketocyclazocine and 5×10^-6 M of test compound were added thereto (in triple). When the test product displaced more than 50% of the radioactivity tied specifically to the receptor, the test was repeated with a range of seven doses to determine the dose which inhibited by 50% the radioactivity tied specifically to the receptor which is deemed CI50. The non-specific bond was determined by the addition of the known product, U-50488 H [Lahti et al., Life Science, Vol. 31 (1982), p 2257], at 10^-5 M (in triple). The mixture was incubated at 25° C. for 40 minutes, placed in a bath at 0° C. for 5 minutes and vacuum filtered. The product was rinsed with buffered Tris at a pH of 7.7 and the radioactivity was counted in the presence of Trition scintillation. The results were expressed directly as the 50% inhibiting concentration (CI50) or the concentration of the test compound which reduced by 50% radioactivity specificity fixed to the standard receptor.

T1 sequence (P41144 whole entry): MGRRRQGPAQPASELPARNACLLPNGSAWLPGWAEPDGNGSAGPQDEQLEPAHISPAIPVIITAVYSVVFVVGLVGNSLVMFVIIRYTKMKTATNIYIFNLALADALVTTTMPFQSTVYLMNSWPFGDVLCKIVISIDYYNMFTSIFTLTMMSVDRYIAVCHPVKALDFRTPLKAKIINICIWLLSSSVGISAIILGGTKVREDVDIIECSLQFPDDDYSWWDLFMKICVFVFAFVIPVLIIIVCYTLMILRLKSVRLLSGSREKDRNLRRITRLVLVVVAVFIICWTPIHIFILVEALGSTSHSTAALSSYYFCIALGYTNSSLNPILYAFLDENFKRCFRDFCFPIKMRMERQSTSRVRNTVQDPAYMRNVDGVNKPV

Take `CN(C(=O)Cc1cccc2sccc12)[C@@H]1c2ccccc2C[C@H]1N1CCCC1` (racemic) [Example 1, Trans (±) N-[2,3-dihydro-2-(pyrrolidin-1-yl)-1H-inden-1-yl]-N-methyl-4-benzo[b]thiophene-acetamide]: the “% Variation (urinary volume)” value in the data set “Diuretic activity” is on record as “+131%”. The “% elongation of time of the appearance of the cardiac rhythm troubles” value in data set [1] is given as “+65%”. Further, the ED (100% increase in reaction time) in data set [2] amounted to 8 mg/kg. The “LDO (dose at which there was no mortality after 8 days)” value in “Acute toxicity” was 100 mg/kg. Also, the IC50 on Kappa opiate receptor amounted to 1.8 nM.
For the molecule `CN(C(=O)Cc1cccc2ccccc12)[C@@H]1c2ccccc2C[C@H]1N1CCCC1` (racemic) [Example 3, trans (±) N-[2,3-dihydro-2-(1-pyrrolidinyl)-1H-inden-1-yl]-N-methyl-1-naphthalene-acetamide], the “% Variation (urinary volume)” value in “Diuretic activity” is “+267%”. Also, the “LDO (dose at which there was no mortality after 8 days)” value in “Acute toxicity” was determined as 100 mg/kg. At Kappa opiate receptor, the IC50 amounted to 4.9 nM.
Turning to `CN(C(=O)Cc1ccc2ccccc2c1)[C@@H]1c2ccccc2C[C@H]1N1CCCC1` (racemic) [Example 4, Trans (±) N-[2,3-dihydro-2-(1-pyrrolidinyl)-1H-inden-1-yl]-N-methyl-2-naphthalene-acetamide], the “LDO (dose at which there was no mortality after 8 days)” value in the data set “Acute toxicity” was determined as 200 mg/kg.
